# Results as given in patent US6969702B2, “Compounds and methods for increasing neurogenesis” (priority 2002, dated 2005).
# Marks after values point to notes of the source that are not given here. Ends that are not written are not given here.
# Columns and labels:
# [1] = system: newborn cells (BrdU positive) in sub ventricular zone and dentate gyrus; assay: In vivo progenitor cell proliferation (BrdU); design: species or system Wistar rats; settings: 10 mg/kg intraperitoneally twice daily 7 days with BrdU
# neural stem cells = assay: In vitro proliferation measured with ATP (Example 14); type: cell-based; design: cell proliferation (ATP), fold the level of control cells: dose or concentration left out as unconfirmed
# Description: To determine proliferation, neurospheres were split and seeded in Neurosphere medium as single cells in 96-well plates, at 10,000 cells/well. The following experiment was performed in sets of four parallel experiments (i.e., performed in quadruplicate) such that the cells may be used for different assays. Substances to be tested were added and cells were incubated at 37° C. for 4 days. Cells were lysed with 0.1 % Triton-X100 in Tris-EDTA buffer. Intracellular ATP was measured using an ATP-SL kit according to the manufacturer's instructions (BioThema, Sweden).
# [2] = system: adenylate cyclase in UMR 106-06 cells; settings: relative to sCT; cited from earlier work
# [3] = molecular target: dipeptidyl peptidase-IV (DPP-VI) (Homo sapiens, UniProt P27487); settings: in mammals; cited from earlier work
# Chain of dipeptidyl peptidase-IV (DPP-VI) (P27487 whole entry, species assumed): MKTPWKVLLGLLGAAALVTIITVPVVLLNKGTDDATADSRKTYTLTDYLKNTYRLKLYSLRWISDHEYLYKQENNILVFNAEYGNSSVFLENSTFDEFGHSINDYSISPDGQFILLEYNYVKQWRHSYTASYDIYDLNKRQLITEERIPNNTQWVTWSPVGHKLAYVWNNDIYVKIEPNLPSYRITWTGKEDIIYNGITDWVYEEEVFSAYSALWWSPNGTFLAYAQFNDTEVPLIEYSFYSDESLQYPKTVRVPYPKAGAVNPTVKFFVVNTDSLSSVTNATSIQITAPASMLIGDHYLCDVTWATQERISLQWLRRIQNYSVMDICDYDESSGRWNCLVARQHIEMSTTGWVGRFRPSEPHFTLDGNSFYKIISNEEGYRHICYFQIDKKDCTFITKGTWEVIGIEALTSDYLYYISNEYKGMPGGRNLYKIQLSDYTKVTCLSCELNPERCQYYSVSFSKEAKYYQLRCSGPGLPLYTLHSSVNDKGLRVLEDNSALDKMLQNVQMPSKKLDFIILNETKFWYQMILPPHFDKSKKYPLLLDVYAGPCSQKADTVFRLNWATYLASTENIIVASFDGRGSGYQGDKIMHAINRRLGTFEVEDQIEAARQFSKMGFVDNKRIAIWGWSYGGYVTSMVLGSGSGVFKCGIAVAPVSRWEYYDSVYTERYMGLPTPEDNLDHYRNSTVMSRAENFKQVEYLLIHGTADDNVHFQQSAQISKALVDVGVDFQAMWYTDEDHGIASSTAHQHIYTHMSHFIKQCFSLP
# [4] = system: CREB phosphorylation in mouse adult neural stem cells; type: cell-based; settings: 100 nM
# [5] = system: cAMP activation in mouse adult neural stem cells; assay: cAMP detection (HitHunter EFC Cyclic AMP Chemiluminescence Assay)
# [6] = system: mouse adult neural stem cells; assay: ATP-assay: proliferation (ATP levels) of neurosphere-derived cells
# [7] = system: NFAT-Luciferace reporter (Ca^2+); settings: 100 nM
# [8] = system: CREB phosphorylation in human adult neural stem cells; type: cell-based; settings: 100 nM
# Adult neural stem cells = assay: Flow cytometry for early neuronal marker Doublecortin; settings: 100 nM
compound,measurement,setting,value
CC[C@H](C)[C@H](NC(=O)[C@H](C)NC(=O)[C@@H](NC(=O)[C@H](CCC(N)=O)NC(=O)[C@@H]1CCCN1C(=O)[C@H](Cc1ccccc1)NC(=O)[C@@H](NC(=O)[C@H](Cc1c[nH]cn1)NC(=O)[C@H](Cc1ccccc1)NC(=O)[C@H](CCCCN)NC(=O)[C@H](CC(N)=O)NC(=O)[C@H](Cc1ccccc1)NC(=O)[C@H](CC(=O)O)NC(=O)[C@H](CCC(N)=O)NC(=O)[C@@H](NC(=O)[C@H](Cc1ccc(O)cc1)NC(=O)[C@@H](NC(=O)CNC(=O)[C@H](CC(C)C)NC(=O)[C@H](CCSC)NC(=O)[C@@H]1CSSC[C@H](N)C(=O)NCC(=O)N[C@@H](CC(N)=O)C(=O)N[C@@H](CC(C)C)C(=O)N[C@@H](CO)C(=O)N[C@@H]([C@@H](C)O)C(=O)N1)[C@@H](C)O)[C@@H](C)O)[C@@H](C)O)[C@@H](C)O)C(=O)NCC(=O)N[C@H](C(=O)NCC(=O)N[C@@H](C)C(=O)N1CCC[C@H]1C(N)=O)C(C)C [calcitonin],number of newborn cells (BrdU positive compared to sham injected),[1],significant increase
same,"cell proliferation (ATP), fold the level of control cells",neural stem cells; 4 days,2.5 fold
same,EC50,"neural stem cells; neural stem cell cultures, read-out: EC50 value (proliferation dose-response curve, FIG. 3)",0.03 nM
"CSNLSTCVLGRLSKDLHRLQTFPRTNTGAGVP (cysteine pairing not given here) [[Arg11, 18, Lys14]-sCT]",potency in activating adenylate cyclase,[2],equivalent to that of sCT
His-Asp-Glu-Phe-Glu-Arg-His-Ala-Glu-Gly-Thr-Phe-Thr-Ser-Asp-Val-Ser-Ser-Tyr-Leu-Glu-Gly-Gln-Ala-Ala-Lys-Glu-Phe-Ile-Ala-Trp-Leu-Val-Lys-Gly-Arg-Gly [GLP-1],halftime of degradation,[3],less than 2 min
cholera toxin,CREB phosphorylation,[4],up-regulation of CREB phosphorylation
same,cAMP (pmol/well),[5],0.07 ± 0.01 pmol/well
same,Fold Induction cAMP,[5]; 10 nM,3.1*** fold
same,proliferation of neural stem cells,[6],increase
same,ATP (nM ATP/well),[6]; 100 nM,12.9 ± 1.6 nM ATP/well
same,Fold Induction ATP,[6]; 100 nM,1.4* fold
same,Fold Induction ATP,"[6]; 100 nM, 4 days",1.4* fold
same,Fold Induction NFAT,[7],1.4** fold
same,NFAT Luciferace units,[7],11.6 ± 1.0 Luciferace units
same,CREB phosphorylation,[8],up-regulation of CREB phosphorylation
same,Fold Induction (Doublecortin-positive cells),Adult neural stem cells,2.6 fold
same,% Doublecortin-positive cells,Adult neural stem cells; 4 days,6.7%
